In assay [1] the test system is T-cell line. In words: Induction on human TEX cells differentiation assessed as reduction in CD34 surface expression at 6 to 25 uM relative to control. It counts as functional, cell-based. The conditions noted are these: dose 6-25 µM.
The species named for assay [2] is Homo sapiens. Nature of the assay: Inhibition of RING1B-PCGF1 (unknown origin) activity at 0.4 to 25 uM relative to control. The conditions noted are these: dose 0.4-25 µM.
For assay [3], the species on record is Homo sapiens. Nature of the assay: Inhibition of BRCA1-BARD1 (unknown origin) activity at 12.2 to 50 uM relative to control. As to conditions: dose 12.2-50 µM.
The species entered for assay [4] is Homo sapiens. In words: Inhibition of TRIM37 (unknown origin) activity at 12.2 to 50 uM relative to control. The conditions noted are these: dose 12.2-50 µM.
For assay [5], the species on record is Homo sapiens. Nature of the assay: Inhibition of RING1B-BMI1 (unknown origin) interaction with nucleosome at 0.8 to 12.5 uM measured by EMSA assay relative to control. As to conditions: dose 0.8-12.5 µM.
Assay [6] deals with K562. In words: Inhibition of PRC1 in human K562 cells. The format is cell-based.
Assay [7] deals with K562. Nature of the assay: Inhibition of RING1B-BMI1 H2Aub activity in human K562 cells at 6.2 to 25 uM relative to control. The format is cell-based. As to conditions: dose 6.2-25 µM.
The subject of assay [8] is T cell. In words: Inhibition of RING1B-BMI1 H2Aub activity in human TEX cells at 6 to 25 uM relative to control. The format is cell-based. The conditions noted are these: dose 6-25 µM.
In assay [9] the test system is M9-ENL1. In words: Inhibition of colony formation in human M9-ENL1. It counts as functional, cell-based.
For assay [10], the system named is M9-ENL1. Nature of the assay: Antitumour activity against human M9-ENL1 cells transplanted in mouse assessed as decrease in leukemia development. It counts as functional, cell-based.
Assay [11] has as its system M9-ENL1. In words: Antitumour activity against human M9-ENL1 cells transplanted in mouse assessed as decrease in engraftment. The format is functional, cell-based.

Our source for the Activity and inhibition values is ChEMBL document CHEMBL5052823, “Prc1 inhibitors and methods of treatment therewith” (2020).

Activity calls are given as the source filed them. The rule behind the calls is not given here.

Regarding `CCc1c(-c2cccc3c2ccn3CCO)[nH]c(C(=O)O)c1-c1ccc(OC)cc1Cl`, the result in assay [1] was inactive.
For the molecule `CC(C)c1c(-c2cccc3[nH]ccc23)[nH]c(C(=O)O)c1-c1c(Cl)ccc2[nH]ccc12`, the inhibition result in assay [2], in assay [5], in [6], in [7], in assay [8] and in assay [9] was “Active” each time. The inhibition result in assay [3] and in [4] was “inactive” each time. The result in assay [1], in [10] and in assay [11] was Active.
